By EC50 is commonly meant the concentration that produces a half-maximal response. For orientation: Kd means a measure of binding affinity in units of concentration.

Nine compounds from patent US12441768B2, “Compositions and methods for treating endometriosis” (EndoMet Biosciences, Inc., priority 2018, dated 2025) can be followed below.

Assay [1] deals with Wnt-responsive promoter (TCF/LEF). The experiment in a line: Wnt-dependent luciferase reporter assay. It counts as cell-based, murine. How it is done:
The luciferase reporter assay is commonly used as a tool to study gene expression at the transcriptional level. Peptides from libraries described herein were characterized for ability to suppress transcription in cells with luciferase expression controlled by a Wnt-responsive promoter. Peptides were added to cells transfected with luciferase gene downstream of a Wnt-responsive promoter. Cells were stimulated with Wnt3a protein and incubated with peptides from libraries described herein. Luminescence was recorded to determine the peptides with the highest β-catenin-inhibiting activity. EC50 values were calculated based on the inhibition of luminescence and expressed as concentration (uM) in Table 5.
Peptides were assessed for their ability to inhibit Wnt signaling. Murine 3T3 fibroblasts that express luciferase under a Wnt-responsive promoter (TCF/LEF) (Enzo Life Sciences, Farmingdale, NY) were stimulated with Wnt3a in the presence of increasing concentrations of peptide inhibitor (Hit 1: SEQ ID NO:217, Hit 2: SEQ ID NO:224, Hit 3: SEQ ID NO:228, Hit 4: SEQ ID NO:227, Hit 5: SEQ ID NO:220, Hit 6: SEQ ID NO:168. Hit 7: SEQ ID NO:226) or with vehicle control (FIG. 2A).
A general note: A reporter such as luciferase makes a cellular process visible.

In assay [2] the target is T1, β-catenin (Homo sapiens, UniProt P35222).
T1 sequence (P35222 1-781): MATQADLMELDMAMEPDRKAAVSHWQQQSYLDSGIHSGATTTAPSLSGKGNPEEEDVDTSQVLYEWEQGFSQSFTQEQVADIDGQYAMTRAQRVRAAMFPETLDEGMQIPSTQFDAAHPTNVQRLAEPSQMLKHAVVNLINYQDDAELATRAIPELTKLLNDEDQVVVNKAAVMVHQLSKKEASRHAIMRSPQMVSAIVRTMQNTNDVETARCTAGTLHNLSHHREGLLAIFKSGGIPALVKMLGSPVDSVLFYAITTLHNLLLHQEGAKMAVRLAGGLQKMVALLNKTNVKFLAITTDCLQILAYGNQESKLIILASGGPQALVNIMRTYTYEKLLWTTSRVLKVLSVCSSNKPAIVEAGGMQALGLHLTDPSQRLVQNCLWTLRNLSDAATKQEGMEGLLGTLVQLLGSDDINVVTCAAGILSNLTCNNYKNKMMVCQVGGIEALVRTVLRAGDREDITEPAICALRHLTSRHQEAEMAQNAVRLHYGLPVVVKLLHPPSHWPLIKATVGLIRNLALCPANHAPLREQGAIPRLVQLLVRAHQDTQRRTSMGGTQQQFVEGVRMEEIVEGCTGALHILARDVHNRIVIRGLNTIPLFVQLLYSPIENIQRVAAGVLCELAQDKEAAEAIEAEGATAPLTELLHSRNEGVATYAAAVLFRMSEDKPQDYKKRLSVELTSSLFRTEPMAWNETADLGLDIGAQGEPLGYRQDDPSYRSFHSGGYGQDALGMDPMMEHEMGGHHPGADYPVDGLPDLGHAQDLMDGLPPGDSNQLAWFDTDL
Put plainly: KD50 measurement using competitive fluorescence polarization (FP) with labelled TCF4. It counts as binding. The settings on record: fluorescence polarization, β-catenin; for Kd: read-out: β-Cat FP KD. The essentials:
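Each compound competes against labelled TCF4 (5 nM) for 100 nM β-catenin at room temperature, tested over 10 nM to 30 uM. Signal: polarization at 470/520 nm excitation/emission. Three repeat experiments were performed.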
Background: Polarisation of emitted light reports the rotation of a fluorescent probe.

Where a SMILES comes first, the peptide text is derived from it.

The compound `CC[C@H](C)[C@@H]1NC(=O)[C@@H](NC(=O)[C@H](CCC(N)=O)NC(=O)[C@H](C)N(C)C(=O)[C@H](Cc2c[nH]c3ccccc23)NC(C)=O)CCCCNC(=O)C[C@@H](C(=O)N[C@@H](Cc2c[nH]cn2)C(=O)N[C@H](C(=O)N[C@@H](CCC(N)=O)C(=O)N[C@@H](CCCNC(=N)N)C(=O)N[C@H](C(=O)N[C@@H](Cc2c[nH]c3ccccc23)C(=O)NCC(N)=O)C(C)C)C2CCCCC2)NC(=O)[C@H](CC(=O)O)NC(=O)[C@H](CC(C)C)NC1=O` [compound 430] (HELM PEPTIDE1{[ac].W.[meA].Q.K.I.L.D.D.H.[O=C([C@@H](N[*:1])C1CCCCC1)[*:2]].Q.R.V.W.G.[am]}$PEPTIDE1,PEPTIDE1,5:R3-9:R3$$$V2.0) registered an EC50 in assay [1] of 15 to 22.5 µM. Moreover, in assay [2], the “β-Cat FP Hill slope” value is 1.75 and the Kd is < 0.4 µM.
The corresponding values for `CC[C@H](C)[C@@H]1NC(=O)[C@@H](NC(=O)[C@H](CCC(N)=O)NC(=O)[C@H](C)N(C)C(=O)[C@H](Cc2c[nH]c3ccccc23)NC(C)=O)CCCCNC(=O)CC[C@@H](C(=O)N[C@@H](Cc2c[nH]cn2)C(=O)N[C@H](C(=O)N[C@@H](CCC(N)=O)C(=O)N[C@@H](CCCNC(=N)N)C(=O)N[C@H](C(=O)N[C@@H](Cc2c[nH]c3ccccc23)C(=O)NCC(N)=O)C(C)C)C2CCCCC2)NC(=O)[C@H](CC(N)=O)NC(=O)[C@H](CC(C)C)NC1=O` [compound 435] (HELM PEPTIDE1{[ac].W.[meA].Q.K.I.L.N.E.H.[O=C([C@@H](N[*:1])C1CCCCC1)[*:2]].Q.R.V.W.G.[am]}$PEPTIDE1,PEPTIDE1,5:R3-9:R3$$$V2.0) are > 30 µM, 0.7 and < 0.4 µM.
Taken in the same sequence, the figures for `CC[C@H](C)[C@@H]1NC(=O)[C@@H](NC(=O)[C@H](CCC(N)=O)NC(C)=O)CCCCNC(=O)CC[C@@H](C(=O)N[C@@H](Cc2c[nH]cn2)C(=O)N[C@H](C(=O)N[C@@H](CCC(N)=O)C(=O)N[C@@H](CCCNC(=N)N)C(=O)N[C@H](C(=O)N[C@@H](Cc2c[nH]c3ccccc23)C(=O)NCC(N)=O)C(C)C)C2CCCCC2)NC(=O)[C@H](CC(=O)O)NC(=O)[C@H](CC(C)C)NC1=O` [compound 440] (HELM PEPTIDE1{[ac].Q.K.I.L.D.E.H.[O=C([C@@H](N[*:1])C1CCCCC1)[*:2]].Q.R.V.W.G.[am]}$PEPTIDE1,PEPTIDE1,3:R3-7:R3$$$V2.0) were 22.5 to 30 µM, 0.7 and < 0.4 µM.
Taken in the same sequence, the figures for `CC[C@H](C)[C@@H]1NC(=O)[C@@H](NC(=O)[C@H](CCC(N)=O)NC(=O)[C@H](C)NC(=O)[C@H](Cc2c[nH]c3ccccc23)NC(C)=O)CCCCNC(=O)CC[C@@H](C(=O)N[C@@H](Cc2c[nH]cn2)C(=O)N[C@H](C(=O)N[C@@H](CCC(N)=O)C(=O)N[C@@H](CCCNC(=N)N)C(=O)N[C@H](C(=O)N[C@@H](Cc2c[nH]c3ccccc23)C(=O)NCC(N)=O)C(C)C)C2CCCCC2)NC(=O)[C@H](CC(=O)O)NC(=O)[C@H](CC(C)C)NC1=O` [compound 441] (HELM PEPTIDE1{[ac].W.A.Q.K.I.L.D.E.H.[O=C([C@@H](N[*:1])C1CCCCC1)[*:2]].Q.R.V.W.G.[am]}$PEPTIDE1,PEPTIDE1,5:R3-9:R3$$$V2.0) were > 30 µM, 1.86 and < 0.4 µM.
For the compound `CC[C@H](C)[C@@H]1NC(=O)[C@@H](NC(=O)[C@H](CCC(N)=O)NC(=O)[C@@H]2CCCCN2C(=O)[C@H](Cc2c[nH]c3ccccc23)NC(C)=O)CCCCNC(=O)CC[C@@H](C(=O)N[C@@H](Cc2c[nH]cn2)C(=O)N[C@H](C(=O)N[C@@H](CCC(N)=O)C(=O)N[C@@H](CCCNC(=N)N)C(=O)N[C@H](C(=O)N[C@@H](Cc2c[nH]c3ccccc23)C(=O)NCC(N)=O)C(C)C)C2CCCCC2)NC(=O)[C@H](CC(=O)O)NC(=O)[C@H](CC(C)C)NC1=O` [compound 442] (HELM PEPTIDE1{[ac].W.[O=C([C@@H]1CCCCN1[*:1])[*:2]].Q.K.I.L.D.E.H.[O=C([C@@H](N[*:1])C1CCCCC1)[*:2]].Q.R.V.W.G.[am]}$PEPTIDE1,PEPTIDE1,5:R3-9:R3$$$V2.0), in assay [1], the EC50 is < 7.5 µM. Further, in assay [2], the “β-Cat FP Hill slope” value is 1.51 and the Kd is < 0.4 µM.
The corresponding values for `CC[C@H](C)[C@@H]1NC(=O)[C@@H](NC(=O)[C@H](CCC(N)=O)NC(=O)C(C)(C)NC(=O)[C@H](Cc2c[nH]c3ccccc23)NC(C)=O)CCCCNC(=O)CC[C@@H](C(=O)N[C@@H](Cc2c[nH]cn2)C(=O)N[C@H](C(=O)N[C@@H](CCC(N)=O)C(=O)N[C@@H](CCCNC(=N)N)C(=O)N[C@H](C(=O)N[C@@H](Cc2c[nH]c3ccccc23)C(=O)NCC(N)=O)C(C)C)C2CCCCC2)NC(=O)[C@H](CC(=O)O)NC(=O)[C@H](CC(C)C)NC1=O` [compound 443] (HELM PEPTIDE1{[ac].W.[Aib].Q.K.I.L.D.E.H.[O=C([C@@H](N[*:1])C1CCCCC1)[*:2]].Q.R.V.W.G.[am]}$PEPTIDE1,PEPTIDE1,5:R3-9:R3$$$V2.0) are 7.5 to 15 µM, 0.86 and < 0.4 µM.
Taken in the same sequence, the figures for `CC[C@H](C)[C@@H]1NC(=O)[C@@H](NC(=O)[C@H](CCC(N)=O)NC(=O)[C@H](C)N(C)C(C)=O)CCCCNC(=O)CC[C@@H](C(=O)N[C@@H](Cc2c[nH]cn2)C(=O)N[C@H](C(=O)N[C@@H](CCC(N)=O)C(=O)N[C@@H](CCCNC(=N)N)C(=O)N[C@H](C(=O)N[C@@H](Cc2c[nH]c3ccccc23)C(N)=O)C(C)C)C2CCCCC2)NC(=O)[C@H](CC(=O)O)NC(=O)[C@H](CC(C)C)NC1=O` [compound 445] (HELM PEPTIDE1{[ac].[meA].Q.K.I.L.D.E.H.[O=C([C@@H](N[*:1])C1CCCCC1)[*:2]].Q.R.V.W.[am]}$PEPTIDE1,PEPTIDE1,4:R3-8:R3$$$V2.0) were 22.5 to 30 µM, 0.7 and < 0.4 µM.
Taken in the same sequence, the figures for `CC[C@H](C)[C@@H]1NC(=O)[C@@H](NC(=O)[C@H](CCC(N)=O)NC(=O)[C@H](C)N(C)C(C)=O)CCCCNC(=O)CC[C@@H](C(=O)N[C@@H](Cc2c[nH]cn2)C(=O)N[C@H](C(=O)N[C@@H](CCC(N)=O)C(=O)N[C@@H](CCCNC(=N)N)C(=O)N[C@H](C(=O)N[C@@H](Cc2c[nH]c3ccccc23)C(=O)N[C@@H](CCCNC(=N)N)C(N)=O)C(C)C)C2CCCCC2)NC(=O)[C@H](CC(=O)O)NC(=O)[C@H](CC(C)C)NC1=O` [compound 448] (HELM PEPTIDE1{[ac].[meA].Q.K.I.L.D.E.H.[O=C([C@@H](N[*:1])C1CCCCC1)[*:2]].Q.R.V.W.R.[am]}$PEPTIDE1,PEPTIDE1,4:R3-8:R3$$$V2.0) were > 30 µM, 0.7 and < 0.4 µM.
For the compound `CC[C@H](C)[C@@H]1NC(=O)[C@@H](NC(=O)[C@H](CCC(N)=O)NC(=O)[C@H](C)N(C)C(=O)[C@H](Cc2c[nH]c3ccccc23)NC(C)=O)CCCCNC(=O)CC[C@@H](C(=O)N[C@@H](Cc2c[nH]cn2)C(=O)N[C@H](C(=O)N[C@@H](CCC(N)=O)C(=O)N[C@@H](CCCNC(=N)N)C(=O)N[C@H](C(=O)N[C@@H](Cc2c[nH]c3ccccc23)C(=O)N[C@@H](CCCNC(=N)N)C(N)=O)C(C)C)C2CCCCC2)NC(=O)[C@H](CC(=O)O)NC(=O)[C@H](CC(C)C)NC1=O` [compound 449] (HELM PEPTIDE1{[ac].W.[meA].Q.K.I.L.D.E.H.[O=C([C@@H](N[*:1])C1CCCCC1)[*:2]].Q.R.V.W.R.[am]}$PEPTIDE1,PEPTIDE1,5:R3-9:R3$$$V2.0), the EC50 in assay [1] is > 30 µM. Further, in assay [2], the “β-Cat FP Hill slope” value was determined as 0.89 and the Kd is < 0.4 µM.
